From US8563594B2, “S1P3 receptor inhibitors for treating pain” (Allergan, Inc., priority 2007, dated 2013)

Biological target: S1P1 receptor (Homo sapiens (Human), UniProt P21453)
Assay: FLIPR assay (Ca2+ response), S1P1 receptor
Type: cell-based
Settings: receptor activity at highest dose tested (10 μM) relative to 5 nM sphingosine-1-phosphate

Chain of S1P1 receptor (P21453 whole entry): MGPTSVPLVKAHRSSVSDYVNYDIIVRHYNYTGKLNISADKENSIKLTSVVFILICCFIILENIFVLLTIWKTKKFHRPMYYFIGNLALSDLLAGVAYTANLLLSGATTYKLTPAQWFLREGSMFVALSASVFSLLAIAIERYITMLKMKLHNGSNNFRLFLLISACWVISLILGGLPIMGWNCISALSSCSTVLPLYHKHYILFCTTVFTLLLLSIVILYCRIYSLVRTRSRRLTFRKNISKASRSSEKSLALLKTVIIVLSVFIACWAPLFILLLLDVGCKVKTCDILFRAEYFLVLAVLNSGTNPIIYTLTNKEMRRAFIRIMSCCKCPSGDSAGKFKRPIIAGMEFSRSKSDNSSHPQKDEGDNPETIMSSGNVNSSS

CCCc1ccc(-c2ccc(CNCCCP(=O)(O)O)nc2-c2ccccc2)cc1 [Compound 154]
S1P1 percent efficacy (in parenthesis): 69%

Cc1ccc(-c2ccc(CNCCCP(=O)(O)O)nc2-c2ccccc2)cc1 [Compound 147]
S1P1 percent efficacy (in parenthesis): 36%

CCc1ccc(-c2ccc(CNCCCP(=O)(O)O)nc2-c2ccccc2)cc1 [Compound 148]
S1P1 percent efficacy (in parenthesis): 57%

CCc1ccc(-c2ccc(CNCCCP(=O)(O)O)nc2-c2ccccc2)cc1 [drawing 165]
S1P1 percent efficacy (in parenthesis) (selective inhibitor table): 57%
